Measured values: US5593835A, “Methods and kits for RNA binding compounds” (President and Fellows of Harvard College, priority 1995, dated 1997)

Target: RRE region of HIV RNA
Test: Fluorescence binding and competitive binding to RRE RNA
Conditions: competition, 100 nM RNA, 15 nM fluorescent tobramycin, 20° C., pH 7.4; read-out: Dissociation Constant (KD) RRE RNA
Protocol: In order to quantitatively determine whether fluorescently labelled tobramycin and other antibiotics bind directly to the RRE region and/or to other regions of the HIV RNA, and with what affinity, the RRE and TAR regions of HIV RNA were prepared and used in the method of the invention as target RNAs.
For binding studies, different concentrations of RRE RNA (from 0 to 300 nm) were mixed with a constant concentration (15 nM) PYT in Binding buffer (140 mM NaCl, 1 mM MgCl2, 20 mM HEPES, pH 7.4), 2 ml total volume, for 1-5 min. at 20° C. in a semimicro-cell cuvette. The fluorescence was measured on a Perkin-Elmer Model 512 double beam fluorescence spectrophotometer. The excitation wavelength used was 330 nm. The intensities of fluorescence emission at 390 nm were used to calculate dissociation constants. Generally 8 to 12 points were used for calculation.
In other competitive binding studies, TAR or RRE RNA was added at a constant concentration of 100 nM±5% and PYT at 15 nM. Different concentrations of competitive antibiotic (tobramycin (o-60 μM), gentamicin C (0-100 μM), neomycin B (0-4 μM), or lividomycin A (0-100 μM) or Rev protein (0-6 μM) were mixed with constant concentrations of RNA (100 nM TAR or RRE) and C1PYT (15 nM), in Binding buffer (140 mM NaCl, 5 mM KCl, 1 mM MgCl2, 20 mM HEPES, pH 7.4), 2 ml total volume, for 1-5 min. at 20° C. in a semimicrocell cuvette. The fluorescence was measured on a Perkin-Elmer Model 512 double beam fluorescence spectrophotometer. The excitation wavelength used was 330 nm. The intensities of fluorescence emission at 390 nm were used to calculate dissociation constants. Generally 8 to 12 points were used for calculation.
Wild type and mutant RRE RNAs were transcribed in vitro by T7 RNA polymerase using synthetic oligonucleotide templates, as described by Milligan et al. (Meth. Enzymol. (1989) 180: 51-62).
Competition binding measurements of antibiotics with RNA and PYT were performed at constant concentrations of PYT and RNA by monitoring fluorescence intensity changes as a function of changing concentrations of the antibiotics (a standard fluorescence curve). The KD s for the antibiotics were calculated by the curve fitting of the fluorescence intensity of PYT as a function of antibiotic concentration, using the following equation: […]

SMILES: NC[C@H]1O[C@H](O[C@H]2[C@H](O)[C@@H](O[C@H]3O[C@H](CO)[C@@H](O)[C@H](N)[C@H]3O)[C@H](N)C[C@@H]2N)[C@H](N)C[C@@H]1O [tobramycin]
- Kd: 2320 ± 280 nM
